Data published in patent US20110027785A1, “METHOD FOR DETERMINING SUSCEPTIBILITY OF INDIVIDUALS TO POLYPHENOLS” (CONOPCO, INC., D/B/A UNILEVER, priority 2009, published 2011).

Tested on: male participants
Experiment: Diastolic blood pressure pre- and post-treatment, 8 week EGCG study stratified by COMT genotype
Assay type: in vivo, human
Details: 800 mg/day EGCG, 8 weeks
Text: This was a double blind, single centre, randomised and parallel design study. A total of 95 male participants were recruited on to the study using the following criteria: • healthy (no significant history or current disease or medication) • non-diabetic • non-smokers • aged 40-65 years • Body Mass Index >28 <38 The study population were randomly assigned to one of two treatment groups. Each group was balanced for age and insulin resistance (homeostatic model of insulin resistance HOMAir). HOMAir was measured from mean fasting plasma glucose values as described by Mathews et al, Diabetologia (1985), 28, 412-419. 75 subjects consented to genotype analysis for the COMT polymorphism rs4680. The active treatment was 800 mg/day EGCG and the placebo treatment 800 mg/day lactose. Treatments were administered twice daily with food for 8 weeks, one 400 mg capsule in the morning and one 400 mg capsule in the evening. The diastolic blood pressure was measured pre- and post-treatment. During the three days before pre- and post-treatment study visits, participants refrained from exercise, alcohol and ate their normal diet which consisted of at least 150 g carbohydrates. Blood pressure was measured manually on the upper arm using a sphygmomanometer (UA-787, A and D Medical). Three measurements were taken at 5 minute intervals whilst participants rested in a semi-recumbent position and with participants rested for at least 5 minutes before the first measurement. All three measurements were used to derive mean blood pressure values. Non-smoking status and alcohol abstinence were verified using Micro CO meter (Micro Medical Ltd) and AlcoMate Pro (AK Solutions) monitors, respectively. All equipment was calibrated before use. The data was stratified based on the derived COMT genotype and analysed. For each treatment group and genotype subset the mean and standard deviation for the change from baseline to endpoint was calculated. Paired t-tests were used to assess whether the change from baseline was statistically significant (p<0.05).

## O=C(O[C@@H]1Cc2c(O)cc(O)cc2O[C@@H]1c1cc(O)c(O)c(O)c1)c1cc(O)c(O)c(O)c1 [EGCG, epigallocatechin gallate]
AA (low activity) COMT genotype, paired t-test p=0.036
  diastolic blood pressure, change compared to baseline: Statistically significant reductions
AA COMT genotype, p=0.044
  LSMean change from baseline in diastolic blood pressure, controlled for baseline: statistically significant reduction
AG (intermediate activity) COMT genotype, paired t-test p=0.006
  diastolic blood pressure, change compared to baseline: Statistically significant reductions
AG COMT genotype, p=0.012
  LSMean change from baseline in diastolic blood pressure, controlled for baseline: statistically significant reduction
GG (high activity) COMT genotype, paired t-test p=0.647
  diastolic blood pressure, change compared to baseline: not statistically significant
GG COMT genotype
  LSMean change from baseline in diastolic blood pressure, controlled for baseline: not the GG group
